Experimental data as given in patent publication US7807664B2, “4,4-difluoro-1,2,3,4-tetrahydro-5H-1-benzazepine derivative or salt thereof” (Astella Pharma Inc., priority 2003, dated 2010).

Legend:
CYP2C9 = CYP2C9 (Homo sapiens, UniProt P11712); test: Cytochrome P450 (2C9) Enzyme Inhibition Test; format: in vitro ADME; conditions: substrate 7-methoxy-4-(trifluoromethyl)cumarin, 37° C. 45 minutes; read-out: CYP2C9 inhibitory activity IC50
Method: (§1) Using a 96 well plate, 7-benzyloxy-4-(trifluoromethyl)cumarin as the substrate (5×10^−5 M), each test compound (from 4.9×10^−8 to 5×10^−5 M) and the enzyme (5×10^−9 M) were incubated at 37° C. for 30 minutes in 200 μl in total volume of 200 mM phosphate buffer (pH=7.4) containing 8.2 μM NADP+, 0.41 mM glucose-6-phosphate, 0.41 mM MgCl2 and 0.4 units/ml glucose-6-phosphate dehydrogenase. Thereafter, the reaction was stopped by adding 0.5 M 2-amino-2-hydroxymethyl-1,3-propanediol aqueous solution containing 80% acetonitrile, and the fluorescence intensity (excitation wavelength; 409 nm, fluorescence wavelength; 530 nm) was measured using a fluorescence plate reader. The inhibition ratio was calculated based on the following formula, and concentration of each test compound by which the inhibition ratio becomes 50% (IC50) was obtained. Inhibition ratio (%)=100−(C1−B1)/(C0−B1)×100 C1: Fluorescence intensity in the presence of test compound having known concentration, enzyme and substrate C0: Fluorescence intensity in the absence of test compound and in the presence of enzyme and substrate B1: Fluorescence intensity of blank well (5) Cytochrome P450 (2C9) Enzyme Inhibition Test
(§2) This test was carried out in accordance with the method of Crespi et al. (Analytical Biochemistry, 248, 188-190, 1997).
Using a 96 well plate, 7-methoxy-4-(trifluoromethyl)cumarin as the substrate (7.5×10^−5 M), each test compound (from 4.9×10^−8 to 5×10^−5 M) and the enzyme (10^−8 M) were incubated at 37° C. for 45 minutes in 200 μl in total volume of 200 mM phosphate buffer (pH=7.4) containing 8.2 μM NADP+, 0.41 mM glucose-6-phosphate, 0.41 mM MgCl2 and 0.4 units/ml glucose-6-phosphate dehydrogenase. Thereafter, the reaction was stopped by adding 0.5 M 2-amino-2-hydroxymethyl-1,3-propanediol aqueous solution containing 80% acetonitrile, and the fluorescence intensity (excitation wavelength; 409 nm, fluorescence wavelength; 530 nm) was measured using a fluorescence plate reader. The inhibition ratio was calculated based on the same formula of aforementioned (4), and concentration of each test compound by which the inhibition ratio becomes 50% (IC50) was obtained.

CYP3A4 = CYP3A4 (Homo sapiens, UniProt P08684); test: Cytochrome P450 (3A4) Enzyme Inhibition Test; format: in vitro ADME; conditions: substrate 7-benzyloxy-4-(trifluoromethyl)cumarin, 37° C. 30 minutes; read-out: CYP3A4 inhibitory activity IC50
Method: (4) Cytochrome P450 (3A4) Enzyme Inhibition Test
as §2, §1

human V2 receptor = target: T1, human V2 receptor (Homo sapiens, UniProt P30518); test: V2 Receptor Binding Test; conditions: human V2 expression CHO cell membrane, [3H]-vasopressin 0.5 nM, 25° C. 60 minutes; read-out: Affinity for V2 receptor Ki
T1 construct: expressed in transfected cells; host or cells: CHO cells (membrane preparation)
Method: (1) V2 Receptor Binding Test
A human V2 expression CHO cell membrane sample was prepared in accordance with the method of Tahara et al. (British Journal of Pharmacology, Vol. 125, pp. 1463-1470, 1998). A 2 μg portion of the membrane sample was incubated together with [^3H]-arginine vasopressin (to be referred simply to as “[^3H]-vasopressin” hereinafter) (0.5 nM, specific activity=75 Ci/mmol) and each compound to be tested (10^−10 to 10^−5 M) at 25° C. for 60 minutes in 250 μl in total volume of 50 mM Tris-HCl buffer (pH=7.4) containing 10 mM MgCl2 and 0.1% bovine serum albumin (BSA). Thereafter, free [^3H]-vasopressin and receptor-bonded [^3H]-vasopressin were separated using a cell harvester, and the receptor-bonded [^3H]-vasopressin was adhered onto a uni-filter plate GF/B glass filter. After sufficient drying, this was mixed with a microplate scintillation cocktail, amount of the receptor-bonded [^3H]-vasopressin was measured using top count and the inhibition ratio was calculated by the following formula. Inhibition ratio(%)=100−(C1−B1)/(C0−B1)×100 C1: Amount of [^3H]-vasopressin bonded to the membrane sample when [^3H]-vasopressin and the receptor membrane sample are treated in the coexistence of test compound having known concentration C0: Amount of [^3H]-vasopressin bonded to the membrane sample when [^3H]-vasopressin and the receptor membrane sample are treated in the absence of test compound B1: Amount of [^3H]-vasopressin bonded to the membrane sample when [^3H]-vasopressin and the receptor membrane sample are treated in the coexistence of excess amount of vasopressin (10^−6 M)
Concentration of each test compound by which the inhibition ratio becomes 50% (IC50 value) was calculated by the aforementioned formula, and affinity of the test compound for the receptor, namely dissociation constant (Ki), was calculated from this by the following formula. Dissociation constant(Ki)=IC50/(1+[L]/Kd) [L]: Concentration of [^3H]-vasopressin Kd: Dissociation constant of [^3H]-vasopressin against the receptor obtained by a saturation binding test

male Wistar rats = test: Antidiuretic Test (Intravenous Administration); format: in vivo; conditions: rat, 0.3 mg/kg intravenous, water loading 30 ml/kg 15 minutes later; for Urine excretion ratio (%) After 1 hour: urine until 1 hour; for Urine excretion ratio (%) After 2 hours: urine until 2 hours
Method: (2) Antidiuretic Test (Intravenous Administration)
Five animals per group of male Wistar rats (10 to 12 weeks of age) were used in the test. The compound of Example 3 was intravenously administered to group A at a dose of 0.3 mg/kg, and the compound of Example 9 to group B at a dose of 0.3 mg/kg, both after dissolving in a solvent (physiological saline containing DMSO), and the solvent alone at a dose of 1 ml/kg to group C as a control, and then 30 ml/kg of distilled water was orally administered by force 15 minutes thereafter (water loading). Urine samples until 2 hours after the water loading were collected using a metabolism cage, and the amount of urine when the water loading amount was defined as 100% was calculated as the urine excretion ratio. In this connection, average value of the urine excretion ratio until after 1 hour and the urine excretion ratio until after 2 hours in each group was used in the evaluation.

T1 sequence (P30518 whole entry): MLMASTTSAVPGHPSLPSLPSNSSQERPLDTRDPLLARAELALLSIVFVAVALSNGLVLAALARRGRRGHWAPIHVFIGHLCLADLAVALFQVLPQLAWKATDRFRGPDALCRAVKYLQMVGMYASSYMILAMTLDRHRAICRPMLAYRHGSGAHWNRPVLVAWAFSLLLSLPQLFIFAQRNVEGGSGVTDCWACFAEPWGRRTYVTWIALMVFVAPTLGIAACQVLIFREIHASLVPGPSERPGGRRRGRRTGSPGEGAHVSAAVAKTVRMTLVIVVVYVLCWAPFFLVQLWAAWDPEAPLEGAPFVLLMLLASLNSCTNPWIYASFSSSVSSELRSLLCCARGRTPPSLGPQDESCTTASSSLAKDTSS
Sequence of CYP3A4 (P08684 whole entry): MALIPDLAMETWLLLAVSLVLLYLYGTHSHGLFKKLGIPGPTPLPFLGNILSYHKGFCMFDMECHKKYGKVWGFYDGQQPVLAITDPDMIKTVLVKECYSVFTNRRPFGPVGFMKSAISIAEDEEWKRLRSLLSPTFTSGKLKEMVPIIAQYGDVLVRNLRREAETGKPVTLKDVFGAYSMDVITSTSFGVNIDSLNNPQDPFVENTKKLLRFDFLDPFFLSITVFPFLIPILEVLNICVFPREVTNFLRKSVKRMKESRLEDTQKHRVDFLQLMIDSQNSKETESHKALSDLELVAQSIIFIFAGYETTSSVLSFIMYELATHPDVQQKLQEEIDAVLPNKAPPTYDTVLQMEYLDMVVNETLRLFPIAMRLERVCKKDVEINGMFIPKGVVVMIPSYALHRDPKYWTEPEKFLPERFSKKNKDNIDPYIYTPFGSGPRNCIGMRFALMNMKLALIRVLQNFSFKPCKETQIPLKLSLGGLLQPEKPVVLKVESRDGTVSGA
Sequence of CYP2C9 (P11712 whole entry): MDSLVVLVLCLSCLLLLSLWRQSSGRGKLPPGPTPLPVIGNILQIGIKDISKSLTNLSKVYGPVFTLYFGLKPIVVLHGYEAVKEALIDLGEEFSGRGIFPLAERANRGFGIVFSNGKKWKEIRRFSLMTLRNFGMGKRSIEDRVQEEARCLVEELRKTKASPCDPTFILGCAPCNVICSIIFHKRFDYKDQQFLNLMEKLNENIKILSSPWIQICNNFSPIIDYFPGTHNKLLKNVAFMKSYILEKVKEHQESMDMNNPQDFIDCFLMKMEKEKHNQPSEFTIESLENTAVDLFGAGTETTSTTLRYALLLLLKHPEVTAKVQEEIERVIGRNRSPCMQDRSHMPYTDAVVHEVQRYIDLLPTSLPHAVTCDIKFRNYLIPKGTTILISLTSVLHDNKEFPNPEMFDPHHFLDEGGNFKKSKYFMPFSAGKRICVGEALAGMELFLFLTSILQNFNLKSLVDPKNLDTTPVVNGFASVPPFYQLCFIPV

Row | SMILES | IC50 (CYP2C9) | IC50 (CYP3A4) | Ki (human V2 receptor) | Urine excretion ratio (%) After 1 hour (male Wistar rats) | Urine excretion ratio (%) After 2 hours (male Wistar rats)
1 | CC(C)NC(=O)C[C@H]1CCCN(C(=O)c2ccc(N3CCCC3)cc2Cl)c2ccccc21 [Comparative compound, 2-[(5R)-1-(2-chloro-4-pyrrolidin-1-ylbenzoyl)-2,3,4,5-tetrahydrobenzazepin-5-yl]-N-isopropylacetamide, reference compound] | < 91 nM | < 91 nM |  |  | 
2 | CCCOc1ccc(C(=O)N2CCC(F)(F)/C(=C\C(=O)NCC(N)=O)c3cc(Cl)ccc32)c(C(F)(F)F)c1 [Example 24] |  |  | 4.3 nM |  | 
3 | C[C@@H](F)COc1ccc(C(=O)N2CCC(F)(F)/C(=C\C(=O)NCC(N)=O)c3cc(F)ccc32)c(C(F)(F)F)c1 [Example 31, (2Z)-N-(2-amino-2-oxoethyl)-2-{4,4,7-trifluoro-1-[4-{[(2R)-2-fluoropropyl]oxy}-2-(trifluoromethyl)benzoyl]-1,2,3,4-tetrahydro-5H-1-benzazepin-5-ylidene}acetamide] |  |  | 10 nM |  | 
4 | CCCOc1ccc(C(=O)N2CCC(F)(F)/C(=C\C(=O)NCCO)c3cc(F)ccc32)c(C(F)(F)F)c1 [Example 46] |  |  | 5.8 nM |  | 
5 | C[C@@H](F)COc1ccc(C(=O)N2CCC(F)(F)/C(=C\C(=O)NCCO)c3cc(F)ccc32)c(C(F)(F)F)c1 [Example 55, (2Z)-N-(2-hydroxyethyl)-2-{4,4,7-trifluoro-1-[4-{[(2R)-2-fluoropropyl]oxy}-2-(trifluoromethyl)benzoyl]-1,2,3,4-tetrahydro-5H-1-benzazepin-5-ylidene}acetamide] |  |  | 16 nM |  | 
6 | CCCOc1ccc(C(=O)N2CCC(F)(F)/C(=C\C(=O)Nc3cccc(O)c3)c3ccccc32)c(C(F)(F)F)c1 [Example 98] |  |  | 6.2 nM |  | 
7 | C[C@@H](F)COc1ccc(C(=O)N2CCC(F)(F)/C(=C\C(=O)NC[C@H](O)CO)c3ccccc32)c(C(F)(F)F)c1 [Example 130, (2Z)-2-{4,4-difluoro-1-[4-{[(2R)-2-fluoropropyl]oxy}-2-(trifluoromethyl)benzoyl]-1,2,3,4-tetrahydro-5H-1-benzazepin-5-ylidene}-N-[(2S)-2,3-dihydroxypropyl]acetamide] | > 50000 nM | > 50000 nM |  |  | 
8 | C[C@@H](F)COc1ccc(C(=O)N2CCC(F)(F)/C(=C\C(=O)NCCC(N)=O)c3cc(F)ccc32)c(C(F)(F)F)c1 [Example 134, 3-[((2Z)-2-{4,4,7-trifluoro-1-[4-{[(2R)-2-fluoropropyl]oxy}-2-(trifluoromethyl)benzoyl]-1,2,3,4-tetrahydro-5H-1-benzazepin-5-ylidene}acetyl)amino]propanamide] |  |  | 12 nM |  | 

Now from value to compound, other results behind:

Row | IC50 (CYP2C9) | IC50 (CYP3A4) | Ki (human V2 receptor) | SMILES | Urine excretion ratio (%) After 1 hour (male Wistar rats) | Urine excretion ratio (%) After 2 hours (male Wistar rats)
9 | > 50000 nM | > 50000 nM | 11 nM | NC(=O)CNC(=O)/C=C1/c2ccccc2N(C(=O)c2ccc(OCC3CC3)cc2C(F)(F)F)CCC1(F)F [Example 3] | 1.3% | 6.2%
10 | 11000 nM | 13000 nM | 19 nM | CCCCOc1ccc(C(=O)N2CCC(F)(F)/C(=C\C(=O)NCC(N)=O)c3ccccc32)c(C(F)(F)F)c1 [Example 9] | 0% | 5.3%
11 |  |  | 18 nM | CCCN(C)c1ccc(C(=O)N2CCC(F)(F)/C(=C\C(=O)NCC(N)=O)c3ccccc32)c(C(F)(F)F)c1 [Example 14] |  | 
12 | 34000 nM | > 50000 nM |  | CC(F)(F)COc1ccc(C(=O)N2CCC(F)(F)/C(=C\C(=O)NCCO)c3ccccc32)c(C(F)(F)F)c1 [Example 51, (2Z)-2-{1-[4-(2,2-difluoropropoxy)-2-(trifluoromethyl)benzoyl]-4,4-difluoro-1,2,3,4-tetrahydro-5H-1-benzazepin-5-ylidene}-N-(2-hydroxyethyl)acetamide] |  | 
13 | 43000 nM | > 50000 nM | 17 nM | C[C@H](F)COc1ccc(C(=O)N2CCC(F)(F)/C(=C\C(=O)NCCO)c3cc(F)ccc32)c(C(F)(F)F)c1 [Example 54, (2Z)-N-(2-hydroxyethyl)-2-{4,4,7-trifluoro-1-[4-{[(2S)-2-fluoropropyl]oxy}-2-(trifluoromethyl)benzoyl]-1,2,3,4-tetrahydro-5H-1-benzazepin-5-ylidene}acetamide] |  | 
14 | > 50000 nM | > 50000 nM | 11 nM | C[C@@H](F)COc1ccc(C(=O)N2CCC(F)(F)/C(=C\C(=O)NC[C@@H](O)CO)c3cc(F)ccc32)c(C(F)(F)F)c1 [Example 136, (2Z)-N-[(2R)-2,3-dihydroxypropyl]-2-{4,4,7-trifluoro-1-[4-{[(2R)-2-fluoropropyl]oxy}-2-(trifluoromethyl)benzoyl]-1,2,3,4-tetrahydro-5H-1-benzazepin-5-ylidene}acetamide] |  | 
